Consider two compounds from patent US20060153782A1, “Skin photoageing and actinic damage treatment” (Novogen Research Pty Ltd, priority 2002, published 2006).

Assay [1] relates to skin thickness. The assay is described as follows: Skin thickness of hairless mice after chronic UV exposure. The class given is in vivo. The settings on record: hairless mice treated either before or after chronic UV exposure, vs non-treated mice. The text has this:
Increased skin thickness may be associated with wrinkles, capillary dilation in skin and skin dryness, as well as actinic damage.

Assay [2] relates to CPD+ve epidermal cells. The assay is described as follows: Cyclobutane pyrimidine dimers (CPD) in UV-irradiated human skin. The format is in vivo. As to conditions: human subject; equol treated skin post-UVR compared with vehicle-only treated skin. The text has this: The formation of CPD's, which occurs immediately on UV exposure (Viv Reeve, pers comm) would be unaffected by any therapeutic agent applied post-UVR. However, the rate of repair of CPDs might be increased by equol. If this occurred, fewer CPDs in equol treated skin compared with the number in vehicle-only treated skin would be observed. [drawing 5] Equol (CAS No. 531-95-3)

Consider `Oc1ccc(C2=Cc3ccc(O)cc3OC2)cc1` [dehydroequol], for which the skin thickness result in assay [1] is on record as “decreased skin thickness”.

As for `Oc1ccc(C2COc3cc(O)ccc3C2)cc1` (stereo not drawn) [equol, Equol], in assay [1], the skin thickness entry is listed as “decreased skin thickness”. Also, in assay [2], the “percentage of CPD+ve epidermal cells” value was “lower percentage of CPD+ve epidermal cells”.
